± gives the expanded uncertainty stated by the source.
Test: xn = mol fraction of the nth substance listed
Details: 100 kPa, Liquid; for mass density: Vibrating tube method; for viscosity: Falling or rolling sphere viscometry

For `OCC1CC1` [cyclopropylmethanol] + CCCCCCCCCCCC, which mass density (318.15 K, x1 = 0.1135) is on record?
Its mass density is 736.06 ± 1 kg/m3.

What about the mass density (318.15 K, x1 = 0.2127) of the same molecule?
The mass density was 742.4 ± 1 kg/m3.

And the mass density (318.15 K, x1 = 0.3059)?
The mass density was 749.51 ± 1 kg/m3.

And the mass density (318.15 K, x1 = 0.3804)?
The mass density was 756.13 ± 1 kg/m3.

And the mass density (318.15 K, x1 = 0.5067)?
Its mass density is 769.82 ± 1 kg/m3.

And the mass density (318.15 K, x1 = 0.6019)?
The mass density was 782.78 ± 1 kg/m3.

What about the mass density (318.15 K, x1 = 0.7011) of the same molecule?
Its mass density is 799.61 ± 1 kg/m3.

And the mass density (318.15 K, x1 = 0.7921)?
The mass density was 819.33 ± 1 kg/m3.

What about the mass density (318.15 K, x1 = 0.8991) of the same molecule?
Its mass density is 850.32 ± 1 kg/m3.

And the mass density (318.15 K, x1 = 1)?
Its mass density is 892.38 ± 1 kg/m3.

And the viscosity (323.15 K, x1 = 0.1039)?
Its viscosity is 0.909 ± 0.019 mPa·s.

And the viscosity (323.15 K, x1 = 0.2032)?
Its viscosity is 0.927 ± 0.02 mPa·s.

And the viscosity (323.15 K, x1 = 0.3022)?
The viscosity was 0.952 ± 0.02 mPa·s.

What about the viscosity (323.15 K, x1 = 0.3997) of the same molecule?
The viscosity was 0.979 ± 0.021 mPa·s.

And the viscosity (323.15 K, x1 = 0.4993)?
The viscosity was 1.052 ± 0.022 mPa·s.

And the viscosity (323.15 K, x1 = 0.5994)?
The viscosity was 1.125 ± 0.024 mPa·s.

What about the viscosity (323.15 K, x1 = 0.7) of the same molecule?
The viscosity was 1.22 ± 0.026 mPa·s.

What about the viscosity (323.15 K, x1 = 0.797) of the same molecule?
Its viscosity is 1.346 ± 0.029 mPa·s.

And the viscosity (323.15 K, x1 = 0.9004)?
The viscosity was 1.546 ± 0.033 mPa·s.

And the viscosity (323.15 K, x1 = 1)?
Its viscosity is 1.843 ± 0.04 mPa·s.

What about the mass density (323.15 K, x1 = 0.1135) of the same molecule?
The mass density was 732.26 ± 1 kg/m3.

What about the mass density (323.15 K, x1 = 0.2127) of the same molecule?
The mass density was 738.54 ± 1 kg/m3.

What about the mass density (323.15 K, x1 = 0.3059) of the same molecule?
The mass density was 745.6 ± 1 kg/m3.

What about the mass density (323.15 K, x1 = 0.3804) of the same molecule?
The mass density was 752.18 ± 1 kg/m3.

And the mass density (323.15 K, x1 = 0.5067)?
Its mass density is 765.79 ± 1 kg/m3.

What about the mass density (323.15 K, x1 = 0.6019) of the same molecule?
The mass density was 778.71 ± 1 kg/m3.

What about the mass density (323.15 K, x1 = 0.7011) of the same molecule?
The mass density was 795.48 ± 1 kg/m3.

What about the mass density (323.15 K, x1 = 0.7921) of the same molecule?
Its mass density is 815.17 ± 1 kg/m3.

What about the mass density (323.15 K, x1 = 0.8991) of the same molecule?
The mass density was 846.12 ± 1 kg/m3.

And the mass density (323.15 K, x1 = 1)?
The mass density was 888.13 ± 1 kg/m3.

And the viscosity (328.15 K, x1 = 0.1039)?
Its viscosity is 0.849 ± 0.018 mPa·s.

And the viscosity (328.15 K, x1 = 0.2032)?
The viscosity was 0.864 ± 0.018 mPa·s.

And the viscosity (328.15 K, x1 = 0.3022)?
Its viscosity is 0.884 ± 0.019 mPa·s.

What about the viscosity (328.15 K, x1 = 0.3997) of the same molecule?
The viscosity was 0.907 ± 0.019 mPa·s.

And the viscosity (328.15 K, x1 = 0.4993)?
The viscosity was 0.969 ± 0.021 mPa·s.

What about the viscosity (328.15 K, x1 = 0.5994) of the same molecule?
The viscosity was 1.031 ± 0.022 mPa·s.

What about the viscosity (328.15 K, x1 = 0.7) of the same molecule?
Its viscosity is 1.112 ± 0.024 mPa·s.

And the viscosity (328.15 K, x1 = 0.797)?
Its viscosity is 1.221 ± 0.026 mPa·s.

And the viscosity (328.15 K, x1 = 0.9004)?
Its viscosity is 1.391 ± 0.03 mPa·s.

What about the viscosity (328.15 K, x1 = 1) of the same molecule?
Its viscosity is 1.646 ± 0.035 mPa·s.

What about the mass density (328.15 K, x1 = 0.1135) of the same molecule?
The mass density was 728.45 ± 1 kg/m3.

What about the mass density (328.15 K, x1 = 0.2127) of the same molecule?
Its mass density is 734.66 ± 1 kg/m3.

And the mass density (328.15 K, x1 = 0.3059)?
Its mass density is 741.65 ± 1 kg/m3.

And the mass density (328.15 K, x1 = 0.3804)?
Its mass density is 748.19 ± 1 kg/m3.

And the mass density (328.15 K, x1 = 0.5067)?
The mass density was 761.73 ± 1 kg/m3.

And the mass density (328.15 K, x1 = 0.6019)?
The mass density was 774.6 ± 1 kg/m3.

What about the mass density (328.15 K, x1 = 0.7011) of the same molecule?
The mass density was 791.32 ± 1 kg/m3.

And the mass density (328.15 K, x1 = 0.7921)?
Its mass density is 810.96 ± 1 kg/m3.

What about the mass density (328.15 K, x1 = 0.8991) of the same molecule?
The mass density was 841.86 ± 1 kg/m3.

And the mass density (328.15 K, x1 = 1)?
Its mass density is 883.84 ± 1 kg/m3.

And the viscosity (333.15 K, x1 = 0.1039)?
The viscosity was 0.794 ± 0.017 mPa·s.

What about the viscosity (333.15 K, x1 = 0.2032) of the same molecule?
Its viscosity is 0.806 ± 0.017 mPa·s.

And the viscosity (333.15 K, x1 = 0.3022)?
The viscosity was 0.823 ± 0.018 mPa·s.

What about the viscosity (333.15 K, x1 = 0.3997) of the same molecule?
Its viscosity is 0.843 ± 0.018 mPa·s.

And the viscosity (333.15 K, x1 = 0.4993)?
The viscosity was 0.896 ± 0.019 mPa·s.

And the viscosity (333.15 K, x1 = 0.5994)?
Its viscosity is 0.948 ± 0.02 mPa·s.

And the viscosity (333.15 K, x1 = 0.7)?
The viscosity was 1.018 ± 0.022 mPa·s.

What about the viscosity (333.15 K, x1 = 0.797) of the same molecule?
The viscosity was 1.111 ± 0.024 mPa·s.

What about the viscosity (333.15 K, x1 = 0.9004) of the same molecule?
The viscosity was 1.257 ± 0.027 mPa·s.

What about the viscosity (333.15 K, x1 = 1) of the same molecule?
The viscosity was 1.476 ± 0.032 mPa·s.

And the mass density (333.15 K, x1 = 0.1135)?
Its mass density is 724.62 ± 1 kg/m3.

What about the mass density (333.15 K, x1 = 0.2127) of the same molecule?
Its mass density is 730.75 ± 1 kg/m3.

And the mass density (333.15 K, x1 = 0.3059)?
The mass density was 737.68 ± 1 kg/m3.

What about the mass density (333.15 K, x1 = 0.3804) of the same molecule?
Its mass density is 744.17 ± 1 kg/m3.

What about the mass density (333.15 K, x1 = 0.5067) of the same molecule?
Its mass density is 757.64 ± 1 kg/m3.

And the mass density (333.15 K, x1 = 0.6019)?
Its mass density is 770.44 ± 1 kg/m3.

And the mass density (333.15 K, x1 = 0.7011)?
Its mass density is 787.11 ± 1 kg/m3.

And the mass density (333.15 K, x1 = 0.7921)?
Its mass density is 806.7 ± 1 kg/m3.

And the mass density (333.15 K, x1 = 0.8991)?
The mass density was 837.56 ± 1 kg/m3.

And the mass density (333.15 K, x1 = 1)?
The mass density was 879.49 ± 1 kg/m3.

What about the viscosity (338.15 K, x1 = 0.1039) of the same molecule?
The viscosity was 0.745 ± 0.016 mPa·s.

What about the viscosity (338.15 K, x1 = 0.2032) of the same molecule?
The viscosity was 0.755 ± 0.016 mPa·s.

What about the viscosity (338.15 K, x1 = 0.3022) of the same molecule?
Its viscosity is 0.769 ± 0.016 mPa·s.

What about the viscosity (338.15 K, x1 = 0.3997) of the same molecule?
Its viscosity is 0.785 ± 0.017 mPa·s.

What about the viscosity (338.15 K, x1 = 0.4993) of the same molecule?
The viscosity was 0.831 ± 0.018 mPa·s.

What about the viscosity (338.15 K, x1 = 0.5994) of the same molecule?
Its viscosity is 0.875 ± 0.019 mPa·s.

And the viscosity (338.15 K, x1 = 0.7)?
The viscosity was 0.935 ± 0.02 mPa·s.

And the viscosity (338.15 K, x1 = 0.797)?
Its viscosity is 1.015 ± 0.022 mPa·s.

And the viscosity (338.15 K, x1 = 0.9004)?
Its viscosity is 1.141 ± 0.024 mPa·s.

And the viscosity (338.15 K, x1 = 1)?
The viscosity was 1.328 ± 0.028 mPa·s.

What about the mass density (338.15 K, x1 = 0.1135) of the same molecule?
The mass density was 720.77 ± 1 kg/m3.

And the mass density (338.15 K, x1 = 0.2127)?
The mass density was 726.81 ± 1 kg/m3.

And the mass density (338.15 K, x1 = 0.3059)?
The mass density was 733.68 ± 1 kg/m3.

And the mass density (338.15 K, x1 = 0.3804)?
Its mass density is 740.12 ± 1 kg/m3.

What about the mass density (338.15 K, x1 = 0.5067) of the same molecule?
The mass density was 753.5 ± 1 kg/m3.

What about the mass density (338.15 K, x1 = 0.6019) of the same molecule?
The mass density was 766.25 ± 1 kg/m3.

And the mass density (338.15 K, x1 = 0.7011)?
Its mass density is 782.85 ± 1 kg/m3.

What about the mass density (338.15 K, x1 = 0.7921) of the same molecule?
The mass density was 802.39 ± 1 kg/m3.

What about the mass density (338.15 K, x1 = 0.8991) of the same molecule?
Its mass density is 833.19 ± 1 kg/m3.

What about the mass density (338.15 K, x1 = 1) of the same molecule?
Its mass density is 875.07 ± 1 kg/m3.

And the viscosity (343.15 K, x1 = 0.1039)?
Its viscosity is 0.702 ± 0.015 mPa·s.

And the viscosity (343.15 K, x1 = 0.2032)?
Its viscosity is 0.709 ± 0.015 mPa·s.

And the viscosity (343.15 K, x1 = 0.3022)?
The viscosity was 0.721 ± 0.015 mPa·s.

What about the viscosity (343.15 K, x1 = 0.3997) of the same molecule?
Its viscosity is 0.734 ± 0.016 mPa·s.

What about the viscosity (343.15 K, x1 = 0.4993) of the same molecule?
Its viscosity is 0.773 ± 0.017 mPa·s.

And the viscosity (343.15 K, x1 = 0.5994)?
The viscosity was 0.811 ± 0.017 mPa·s.

And the viscosity (343.15 K, x1 = 0.7)?
The viscosity was 0.862 ± 0.018 mPa·s.

And the viscosity (343.15 K, x1 = 0.797)?
The viscosity was 0.931 ± 0.02 mPa·s.

What about the viscosity (343.15 K, x1 = 0.9004) of the same molecule?
The viscosity was 1.039 ± 0.022 mPa·s.

And the viscosity (343.15 K, x1 = 1)?
The viscosity was 1.201 ± 0.026 mPa·s.

And the mass density (343.15 K, x1 = 0.1135)?
Its mass density is 716.91 ± 1 kg/m3.

What about the mass density (343.15 K, x1 = 0.2127) of the same molecule?
The mass density was 722.85 ± 1 kg/m3.

What about the mass density (343.15 K, x1 = 0.3059) of the same molecule?
Its mass density is 729.64 ± 1 kg/m3.

What about the mass density (343.15 K, x1 = 0.3804) of the same molecule?
The mass density was 736.03 ± 1 kg/m3.

And the mass density (343.15 K, x1 = 0.5067)?
Its mass density is 749.32 ± 1 kg/m3.

And the mass density (343.15 K, x1 = 0.6019)?
Its mass density is 762 ± 1 kg/m3.

And the mass density (343.15 K, x1 = 0.7011)?
Its mass density is 778.54 ± 1 kg/m3.

And the mass density (343.15 K, x1 = 0.7921)?
Its mass density is 798.03 ± 1 kg/m3.

What about the mass density (343.15 K, x1 = 0.8991) of the same molecule?
Its mass density is 828.77 ± 1 kg/m3.

And the mass density (343.15 K, x1 = 1)?
The mass density was 870.62 ± 1 kg/m3.
